# Earlier results, collected in patent US11450405B2, “Techniques for modeling parathyroid gland functionality and calcimimetic drug activity” (Fresenius Medical Care Holdings, Inc., priority 2018, dated 2022).
# Where two headings read alike, the source gives them in different places.
# Assays:
# [1] = tested on: PTH concentration; settings: after the administration of cinacalcet
# [2] = for effect of hemodialysis on the pharmacokinetics: hemodialysis patients
# [3] = listed as Cinacalcet hydrochloride
smiles,measurement,setting,value
C[C@@H](NCCCc1cccc(C(F)(F)F)c1)c1cccc2ccccc12 [cinacalcet],time after dosing at which PTH concentration reaches a minimum,[1],2 to 3 h
same,bio-availability on administration with food,[2]; administration with food,higher
same,peak concentrations on administration with food,[2]; administration with food,higher
same,total exposure values on administration with food,[2]; administration with food,higher
same,time at which plasma concentration peaks,[2]; following oral administration,2 to 6 h
same,effect of hemodialysis on the pharmacokinetics,[2],negligible
same,effect of hemodialysis on the pharmacokinetics,[2]; [3],not altered
same,higher terminal half-life values in hepatic impairment,[2]; moderate to severe hepatic impairment,40-70%
same,absolute bioavailability,[2]; oral administration,20-25%
same,absorption,[2]; oral administration,~100%
same,"Bio (bioavailability), reference range",[2]; single 75 mg dose,20-25%
same,"VD, reference range",[2]; single 75 mg dose,1000 to 1250 L
same,"half-life of distribution t1/2^D, reference value",[2]; single 75 mg dose,6 h
same,"terminal half-life, reference range",[2]; single 75 mg dose,30 to 40 h
same,"tmax, reference range",[2]; single 75 mg dose,1 to 6 h
same,"Cmax, mean reference value","[2]; single 75 mg dose, SD 9.4",26.6 ng/mL
same,mean apparent oral clearance rate CL/F,"[2]; single 75 mg dose, SD 148",314 L/h
same,apparent oral clearance rate CL/F (target),[2]; single oral dose of 75 mg,around 314 L/h
same,apparent volume of distribution at steady state VD (target),[2]; single oral dose of 75 mg,around 1000 L
same,distribution half-life tD (target),[2]; single oral dose of 75 mg,6 h
same,time until the maximum plasma concentration is reached (target),[2]; single oral dose of 75 mg,around 2.3 hours
same,volume of distribution at steady state,[2]; steady state,1000 L
same,fraction of the drug in the plasma that is protein bound,,Around 95%
same,fraction of the drug in the plasma that is protein bound,[3],~95%
